Measurements reported in patent US20220031723A1, “POWDERED FOOD COMPOSITION COMPRISING ERIOCITRIN” (EUROMED, S.A., priority 2020, published 2022).
Values after ≈ are worked out from the molar mass of the structure shown.

Experiments:
[1] = cited from earlier work; for water solubility: in water
[2] = Urinary excretion of quantified metabolites in collected fractions after extract intake; assay type: in vivo, human; conditions: mean ± SD; for Metabolite quantified in urine fraction F1: fraction 0 to 4 h; for Metabolite quantified in urine fraction F2: fraction 4 to 8 h; for Metabolite quantified in urine fraction F3: fraction 8 to 10 h; for Metabolite quantified in urine fraction F4: fraction collected at 24 h (10-24 h); for Metabolite quantified in urine, Total F (24 h): sum of fractions F1-F4
Description: Table 4 and Table 5 show the urinary excretion of quantified metabolites at the different fractions collected, i.e., 0-4 h (F1), 4-8 h (F2), 8-10 h (F3), and 10-24 h (F4), after extracts intake.

[3] = Occurrence of plasma and urine metabolites in volunteers after consuming lemon or orange extract; assay type: in vivo, human; conditions: human, in vivo
Source text: Through a targeted metabolomic strategy, a total of 17 metabolites were tentatively identified (Table 3). No hesperidin or eriocitrin-derived metabolites were detected in any volunteer at baseline. All the identified metabolites were detected at least in one volunteer, independently of the extract consumed, except for the metabolites M9 (eriodictyol sulfoglucuronide) and M11 (hesperetin sulfoglucuronide), which only were detected after consuming lemon and orange extract, respectively (Table 3). These representative EICs illustrate the metabolites identified in urine (F3 fraction) after consuming lemon (FIG. 3A) and orange (FIG. 3B) extracts, and plasma after consuming lemon (FIG. 3C) and orange (FIG. 3D) extracts. From the 17 metabolites, 16 were detected after consuming lemon extract (except M11), and 15 after consuming orange extract (except M9 and M10 in urine, and M9 and M12 in plasma) (Table 3).

| Metabolite quantified in urine fraction F1 ([2]; after consuming lemon extract) | Metabolite quantified in urine fraction F2 ([2]; after consuming lemon extract) | Metabolite quantified in urine fraction F3 ([2]; after consuming lemon extract) | Metabolite quantified in urine fraction F4 ([2]; after consuming lemon extract) | Metabolite quantified in urine, Total F (24 h) ([2]; after consuming lemon extract) | Metabolite quantified in urine fraction F1 ([2]; after consuming orange extract) | Metabolite quantified in urine fraction F2 ([2]; after consuming orange extract) | Metabolite quantified in urine fraction F3 ([2]; after consuming orange extract) | Metabolite quantified in urine fraction F4 ([2]; after consuming orange extract) | Metabolite quantified in urine, Total F (24 h) ([2]; after consuming orange extract) | Occurrence Plasma LE (number of volunteers in whom metabolite was detected) [3] | Occurrence Plasma LE (second column so headed; number of volunteers in whom metabolite was detected) [3] | Occurrence Urine LE (number of volunteers in whom metabolite was detected) [3] | Occurrence Urine LE (second column so headed; number of volunteers in whom metabolite was detected) [3] | SMILES | solubility in water [1] | water solubility [1] |
| --- | --- | --- | --- | --- | --- | --- | --- | --- | --- | --- | --- | --- | --- | --- | --- | --- |
| – | – | – | – | – | – | – | – | – | – | – | – | – | – | C[C@@H]1O[C@@H](OC[C@H]2O[C@@H](Oc3cc(O)c4c(c3)O[C@H](c3ccc(O)c(O)c3)CC4=O)[C@H](O)[C@@H](O)[C@@H]2O)[C@H](O)[C@H](O)[C@H]1O [eriocitrin, Eriocitrin] | 4000 micrograms/ml | about 40 mg/ml |
| – | – | – | – | – | – | – | – | – | – | – | – | – | – | COc1ccc([C@@H]2CC(=O)c3c(O)cc(O[C@@H]4O[C@H](CO[C@@H]5O[C@@H](C)[C@H](O)[C@@H](O)[C@H]5O)[C@@H](O)[C@H](O)[C@H]4O)cc3O2)cc1O [hesperidin, Hesperidin, reference compound] | 5 micrograms/ml | 4.9 µg/mL (≈ 8.03 µM) |
| 1.9 ± 2.6 μg/mg creatinine | 4.3 ± 4.5 μg/mg creatinine | 3.3 ± 3.1 μg/mg creatinine | 0.7 ± 0.6 μg/mg creatinine | 9.0 ± 9.1 μg/mg creatinine | 0.1 ± 0.3 μg/mg creatinine | 1.2 ± 3.3 μg/mg creatinine | 1.9 ± 3.1 μg/mg creatinine | 0.6 ± 0.6 μg/mg creatinine | 3.8 ± 7.3 μg/mg creatinine | 16 | 16 | 16 | 16 | COc1ccc(C2CC(=O)c3c(O)cc(O)cc3O2)cc1OS(=O)(=O)O (stereo not drawn) [M14, Hesperetin 3'-O-sulfate] | – | – |
